Patent US20250206732A1, “COMPOUNDS AND METHODS FOR THE TARGETED DEGRADATION OF KRAS” (Arvinas Operations, Inc., priority 2022, published 2025)

Molecular target: T1, AsPC-1 HiBiT-KRASG12D (Homo sapiens, UniProt P01116, G12D)
T1 construct: insert the HiBiT tag onto the N-terminus of one or more of the endogenous KRAS alleles; endogenous in cells; host or cells: AsPC-1 (ATCC CRL-1682), CRISPR-Cas9 knock-in clone, one tagged allele
Experiment: HiBiT degradation assay (G12D), AsPC-1 HiBiT-KRASG12D cells
Format: cell-based
Settings: 24 hours treatment; for Dmax: ASPC1, AsPC-1 HiBiT-KRASG12D cells, maximum degradation observed; for DC50: AsPC-1 HiBiT-KRASG12D cells, HiBiT luminescence
Text: Reagents. […] SW1573 cells are homozygous for the G12C mutation in KRAS, AsPC-1 cells are homozygous for the G12D mutation, and SW620 cells are homozygous for the G12V mutation. […] For degradation assays, 384 well plates were used. Alamar blue was purchased from ThermoFisher scientific (A50101) and used according to manufacturer instructions. The Nano-Glo® HiBiT Lytic Detection System and Nano-Glo® HiBiT Blotting System were purchased from Promega (#N3050 and #N2410) and used according to manufacturer instructions.
To create the AsPC-1 HiBiT-KRASG12D cell line, CRISPR-Cas9 was used to insert the HiBiT tag onto the N-terminus of one or more of the endogenous KRAS alleles. […] After knock-in of the tag, individual clones were isolated by single cell dilution and screened for HiBiT insertion by PCR. […] This clone was used in further studies.
HiBiT degradation assays (G12C and G12D). […] All assays were performed in triplicate. Cells were treated with compounds for 24 hours at 37° C. in an incubator containing 5% CO2. Following treatment, alamar blue was used to determine if any compounds led to a loss in cell viability after 24 hours. The 10× alamar blue reagent was added to a final concentration of 1× as recommended by the manufacturer and cells were returned to the incubator for 4 hours. Plates were then allowed to equilibrate to room temperature and fluorescence was measured using a Perkin-Elmer EnVision. After completion of the fluorescence read, the liquid from each well was removed and the cells were washed with PBS. The Nano-Glo® HiBiT detection reagent was prepared according to the manufacturer's instructions and added to each well after the PBS wash was removed. Following incubation at room temperature for 45 minutes, the luminescence was read using the ultra-sensitive luminescence aperture on the Envision instrument.
Data analysis. Fluorescence values from the alamar blue treatment were normalized to the DMSO-only control for each compound titration.

T1 sequence (P01116 1-188 isoform P01116-2 G12D): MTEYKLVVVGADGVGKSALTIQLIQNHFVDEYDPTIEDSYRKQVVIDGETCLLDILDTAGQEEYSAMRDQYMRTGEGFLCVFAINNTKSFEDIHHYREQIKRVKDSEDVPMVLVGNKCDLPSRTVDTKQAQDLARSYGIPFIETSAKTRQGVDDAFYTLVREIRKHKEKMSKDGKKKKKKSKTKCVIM

Row | Structure (SMILES) | Dmax | DC50
1 | CCc1cccc2cc(O)cc(-c3ncc4c(N5CC6CCC(C5)N6)nc(OC[C@]56CCCN5[C@@H](COC(=O)N5CCN(c7cc([C@H](C(=O)N8C[C@H](O)C[C@H]8C(=O)N[C@@H](C)c8ccc(-c9scnc9C)cc8)C(C)C)on7)CC5)CC6)nc4c3F)c12 (relative stereo) [Compound 110, [(3R*,7aR**)-7a-{[(4-{3,8-diazabicyclo[3.2.1]octan-3-yl}-7-(8-ethyl-3-hydroxynaphthalen-1-yl)-8-fluoropyrido[4,3-d]pyrimidin-2-yl)oxy]methyl}-hexahydro-1H-pyrrolizin-3-yl]methyl 4-{5-[(2R***)-1-[(2S,4R)-4-hydroxy-2-{[(1S)-1-[4-(4-methyl-1,3-thiazol-5-yl)phenyl]ethyl]carbamoyl}pyrrolidin-1-yl]-3-methyl-1-oxobutan-2-yl]-1,2-oxazol-3-yl}piperazine-1-carboxylate] | 80 to 100% | < 0.6 µM
2 | CCc1cccc2cc(O)cc(-c3ncc4c(N5CC6CCC(C5)N6)nc(OCCN5CCN(c6cc([C@H](C(=O)N7C[C@H](O)C[C@H]7C(=O)N[C@@H](C)c7ccc(-c8scnc8C)cc7)C(C)C)on6)CC5)nc4c3F)c12 (relative stereo) [Compound 134, (2S,4R)-1-[(2R*)-2-[3-(4-{2-[(4-{3,8-diazabicyclo[3.2.1]octan-3-yl}-7-(8-ethyl-3-hydroxynaphthalen-1-yl)-8-fluoropyrido[4,3-d]pyrimidin-2-yl)oxy]ethyl}piperazin-1-yl)-1,2-oxazol-5-yl]-3-methylbutanoyl]-4-hydroxy-N-[(1S)-1-[4-(4-methyl-1,3-thiazol-5-yl)phenyl]ethyl]pyrrolidine-2-carboxamide] | 20 to 60% | 1 to 3 µM
3 | CCc1cccc2cc(O)cc(-c3ncc4c(N5CC6CCC(C5)N6)nc(OCCN5CCC(N(C)c6cc([C@H](C(=O)N7C[C@H](O)C[C@H]7C(=O)N[C@@H](C)c7ccc(-c8scnc8C)cc7)C(C)C)on6)CC5)nc4c3F)c12 (relative stereo) [Compound 135, (2S,4R)-1-[(2R*)-2-{3-[(1-{2-[(4-{3,8-diazabicyclo[3.2.1]octan-3-yl}-7-(8-ethyl-3-hydroxynaphthalen-1-yl)-8-fluoropyrido[4,3-d]pyrimidin-2-yl)oxy]ethyl}piperidin-4-yl)(methyl)amino]-1,2-oxazol-5-yl}-3-methylbutanoyl]-4-hydroxy-N-[(1S)-1-[4-(4-methyl-1,3-thiazol-5-yl)phenyl]ethyl]pyrrolidine-2-carboxamide] | 80 to 100% | < 0.6 µM
4 | CCc1cccc2cc(O)cc(-c3ncc4c(N5CC6CCC(C5)N6)nc(OCCN5CCN(c6cc([C@@H](C(=O)N7C[C@H](O)C[C@H]7C(=O)N[C@@H](C)c7ccc(-c8scnc8C)cc7)C(C)C)on6)CC5)nc4c3F)c12 (relative stereo) [Compound 136, (2S,4R)-1-[(2R*)-2-[3-(4-{2-[(4-{3,8-diazabicyclo[3.2.1]octan-3-yl}-7-(8-ethyl-3-hydroxynaphthalen-1-yl)-8-fluoropyrido[4,3-d]pyrimidin-2-yl)oxy]ethyl}piperazin-1-yl)-1,2-oxazol-5-yl]-3-methylbutanoyl]-4-hydroxy-N-[(1S)-1-[4-(4-methyl-1,3-thiazol-5-yl)phenyl]ethyl]pyrrolidine-2-carboxamide] | – | > 3 µM
5 | CCc1cccc2cc(O)cc(-c3ncc4c(N5CC6CCC(C5)N6)nc(OCCN5CCC(N(C)c6cc([C@@H](C(=O)N7C[C@H](O)C[C@H]7C(=O)N[C@@H](C)c7ccc(-c8scnc8C)cc7)C(C)C)on6)CC5)nc4c3F)c12 (relative stereo) [Compound 137, (2S,4R)-1-[(2R*)-2-{3-[(1-{2-[(4-{3,8-diazabicyclo[3.2.1]octan-3-yl}-7-(8-ethyl-3-hydroxynaphthalen-1-yl)-8-fluoropyrido[4,3-d]pyrimidin-2-yl)oxy]ethyl}piperidin-4-yl)(methyl)amino]-1,2-oxazol-5-yl}-3-methylbutanoyl]-4-hydroxy-N-[(1S)-1-[4-(4-methyl-1,3-thiazol-5-yl)phenyl]ethyl]pyrrolidine-2-carboxamide] | 20 to 60% | 1 to 3 µM
6 | CCc1cccc2cc(O)cc(-c3ncc4c(N5CC6CCC(C5)N6)nc(OCCN5CCC(Oc6cc([C@H](C(=O)N7C[C@H](O)C[C@H]7C(=O)N[C@@H](C)c7ccc(-c8scnc8C)cc7)C(C)C)on6)CC5)nc4c3F)c12 (relative stereo) [Compound 138, (2S,4R)-1-[(2R*)-2-{3-[(1-{2-[(4-{3,8-diazabicyclo[3.2.1]octan-3-yl}-7-(8-ethyl-3-hydroxynaphthalen-1-yl)-8-fluoropyrido[4,3-d]pyrimidin-2-yl)oxy]ethyl}piperidin-4-yl)oxy]-1,2-oxazol-5-yl}-3-methylbutanoyl]-4-hydroxy-N-[(1S)-1-[4-(4-methyl-1,3-thiazol-5-yl)phenyl]ethyl]pyrrolidine-2-carboxamide] | 80 to 100% | < 0.6 µM
7 | CCc1cccc2cc(O)cc(-c3ncc4c(N5CC6CCC(C5)N6)nc(OCCN5CCC(Oc6cc([C@@H](C(=O)N7C[C@H](O)C[C@H]7C(=O)N[C@@H](C)c7ccc(-c8scnc8C)cc7)C(C)C)on6)CC5)nc4c3F)c12 (relative stereo) [Compound 139, (2S,4R)-1-[(2R*)-2-{3-[(1-{2-[(4-{3,8-diazabicyclo[3.2.1]octan-3-yl}-7-(8-ethyl-3-hydroxynaphthalen-1-yl)-8-fluoropyrido[4,3-d]pyrimidin-2-yl)oxy]ethyl}piperidin-4-yl)oxy]-1,2-oxazol-5-yl}-3-methylbutanoyl]-4-hydroxy-N-[(1S)-1-[4-(4-methyl-1,3-thiazol-5-yl)phenyl]ethyl]pyrrolidine-2-carboxamide] | < 20% | 1 to 3 µM
8 | CCc1cccc2cc(O)cc(-c3ncc4c(N5CC6CCC(C5)N6)nc(OCCN5CCC6(CC5)CN(c5cc([C@H](C(=O)N7C[C@H](O)C[C@H]7C(=O)N[C@@H](C)c7ccc(-c8ccnn8C)cc7)C(C)C)on5)C6)nc4c3F)c12 (relative stereo) [Compound 140, (2S,4R)-1-[(2R*)-2-[3-(7-{2-[(4-{3,8-diazabicyclo[3.2.1]octan-3-yl}-7-(8-ethyl-3-hydroxynaphthalen-1-yl)-8-fluoropyrido[4,3-d]pyrimidin-2-yl)oxy]ethyl}-2,7-diazaspiro[3.5]nonan-2-yl)-1,2-oxazol-5-yl]-3-methylbutanoyl]-4-hydroxy-N-[(1S)-1-[4-(1-methyl-1H-pyrazol-5-yl)phenyl]ethyl]pyrrolidine-2-carboxamide] | 80 to 100% | < 0.6 µM
9 | CCc1cccc2cc(O)cc(-c3ncc4c(N5CC6CCC(C5)N6)nc(OCCN5CCC6(CC5)CN(c5cc([C@@H](C(=O)N7C[C@H](O)C[C@H]7C(=O)N[C@@H](C)c7ccc(-c8ccnn8C)cc7)C(C)C)on5)C6)nc4c3F)c12 (relative stereo) [Compound 141, (2S,4R)-1-[(2R*)-2-[3-(7-{2-[(4-{3,8-diazabicyclo[3.2.1]octan-3-yl}-7-(8-ethyl-3-hydroxynaphthalen-1-yl)-8-fluoropyrido[4,3-d]pyrimidin-2-yl)oxy]ethyl}-2,7-diazaspiro[3.5]nonan-2-yl)-1,2-oxazol-5-yl]-3-methylbutanoyl]-4-hydroxy-N-[(1S)-1-[4-(1-methyl-1H-pyrazol-5-yl)phenyl]ethyl]pyrrolidine-2-carboxamide] | 20 to 60% | 1 to 3 µM
10 | CCc1cccc2cc(O)cc(-c3ncc4c(N5CC6CCC(C5)N6)nc(OCCN5CCC(COc6cc([C@@H](C(=O)N7C[C@H](O)C[C@H]7C(=O)N[C@@H](C)c7ccc(-c8ccnn8C)cc7)C(C)C)on6)CC5)nc4c3F)c12 (relative stereo) [Compound 142, (2S,4R*)-1-[(2S)-2-{3-[(1-{2-[(4-{3,8-diazabicyclo[3.2.1]octan-3-yl}-7-(8-ethyl-3-hydroxynaphthalen-1-yl)-8-fluoropyrido[4,3-d]pyrimidin-2-yl)oxy]ethyl}piperidin-4-yl)methoxy]-1,2-oxazol-5-yl}-3-methylbutanoyl]-4-hydroxy-N-[(1S)-1-[4-(1-methyl-1H-pyrazol-5-yl)phenyl]ethyl]pyrrolidine-2-carboxamide] | – | > 3 µM
11 | CCc1cccc2cc(O)cc(-c3ncc4c(N5CC6CCC(C5)N6)nc(OCCN5CCC(COc6cc([C@H](C(=O)N7C[C@H](O)C[C@H]7C(=O)N[C@@H](C)c7ccc(-c8ccnn8C)cc7)C(C)C)on6)CC5)nc4c3F)c12 (relative stereo) [Compound 143, (2S,4R)-1-[(2R*)-2-{3-[(1-{2-[(4-{3,8-diazabicyclo[3.2.1]octan-3-yl}-7-(8-ethyl-3-hydroxynaphthalen-1-yl)-8-fluoropyrido[4,3-d]pyrimidin-2-yl)oxy]ethyl}piperidin-4-yl)methoxy]-1,2-oxazol-5-yl}-3-methylbutanoyl]-4-hydroxy-N-[(1S)-1-[4-(1-methyl-1H-pyrazol-5-yl)phenyl]ethyl]pyrrolidine-2-carboxamide] | 80 to 100% | < 0.6 µM
